Where two headings read alike, the source gives them in different places.

Data set [1] deals with human plasma. Kind of data set: Anti-coagulation activity in human plasma. To be noted: calcium chloride, 37° C. for 30 min, judged with the naked eye.
The subject of data set [2] is AIDS virus (HIV-1, IIIb). It is filed as cell-based. The note with it: HIV-1 IIIb in H9 cells, p24 in culture supernatant by ELISA on the 6th day. Here is the method: (§1) Samples of various concentrations (25 μl) are distributed into a 24-well microplate, immediately added with human T cells (H9 cell line, 1.2×10^5/ml) (1 ml), covered, and incubated at 37° C. for 1 h. Then, AIDS virus (HIV-1, IIIb, 100 TCID 50) (25 μl) is added to each well and thoroughly mixed, covered again, and incubated under the CO2 atmosphere at 37° C. for 3 days. On the fourth day, aliquots (200 μl) of the culture medium from each well are transferred into a fresh microplate. The growth medium (500 μl) is added to each well, and further incubated for 2 days.
(§2) On the 6th day, aliquots (90 μl) of the culture supernatant are withdrawn, and assayed the amount of p24, a constituent of HIV-1, by ELISA method using the anti-p24 antibody to assess the growth of said virus. Also, using the remaining cell culture suspension (100 μl), viable cells are counted by the MTT method. Experimental values are expressed as the ratios (%) to the negative control value (measured using the solvent to dissolve test compounds as the sample) to represent the anti-HIV activity and cytotoxicity. Then, for the unified representation of the anti-HIV activity and cytotoxicity, the concentrations of test compounds at their 50% values are obtained from the activity-concentration curves and the cytotoxicity-concentration, and represented as IC50 and CC50, respectively.
(In general: ELISA stands for enzyme-linked immunosorbent assay.)

The subject of data set [3] is human T cells (H9 cell line). The experiment in a line: Cytotoxicity, viable cells counted by the MTT method. It is filed as cell-based. The method, then:
as §1, §2
On the technique in general: Formazan colour is commonly taken as a measure of viable cells.

Data set [4] relates to Herpes simplex II virus (HSVII). Kind of data set: Plaque reduction assay, Herpes simplex II virus. The note with it: HEp-2, HEP2 cells. It is filed as cell-based. Here is the method: Antiviral activity against human Parainfluenza virus, Respiratory syncytial virus (RSV) and Herpes simplex II virus (HSVII) was determined by the plaque reduction assay, while that against Feline immunodeficiency virus (FIV) and Feline leukemia virus (FeLV) by the reverse transcriptase assay and ELISA, respectively.
Each virus was obtained from ATCC. As host cells, VERO cells were used for Parainfluenza virus, and HEP2 cells for other viruses.
To fibroblasts growing in a T150 flask were added virus-infected cells, and the cells were incubated until they reached 60-80% infection. Cells were trypsinized, recovered and used as the virus stock. As the cell culture medium was used E-MEM containing 2-5% FBS, 100 U/ml Penicillin, 2.5 μg/ml Aniphotericin and 10 μg/ml Gentamycin.
Compound related to Example 29 was appropriately diluted to the concentrations of 500, 100, 50, 10 and 5 μg/ml with the culture medium or methyl cellulose. As the reference drug for HSV II was used Acyclovir. […]
Cells were cultured at 36-38° C. under the 5-7% CO2 atmosphere, and examined for the appearance of plaques under microscope. […] Number of plaques counted in the sample well was compared with that in the virus control well, and the decrease in the number of plaques was used to express the antiviral activity.
On the technique in general: Plaque reduction counts the foci of infection that form in a cell layer.

The subject of data set [5] is mice. The experiment in a line: Toxicity study, intravenous administration to mice. It is filed as in vivo. To be noted: intravenously administered. Here is the method:
Compounds were intravenously administered to mice, and LD50s (mg/kg) were determined.

Dextran sulfate [reference compound]: the “Minimum concentration exhibiting anticoagulant action” value in data set [1] was found to be 0.5 µM.
For `CCCCCCCCCCCCCCCCCCCCOCC(C)(COCCCCCCCCCCCCCCCCCCCC)CO[C@]1(C(=O)O)C[C@H](OS(=O)(=O)O)[C@@H](NC(C)=O)[C@H]([C@H](OS(=O)(=O)O)[C@@H](COS(=O)(=O)O)OS(=O)(=O)O)O1` [Example 32, Sodium[2,2-bis(eicosyloxymethyl)propyl 5-acetamido-3,5-dideoxy-4,7,8,9-tetra-O-(sodiumoxysulfonyl)-D-glycero-α-D-galacto-2-nonulopyranosid)onate], the IC50 in data set [2] stood at 2.5 µM. Also, the CC50 in data set [3] was > 200 µM.
In data set [4], `Nc1nc2c(ncn2COCCO)c(=O)[nH]1` [Acyclovir, reference compound] registered an IC50 of 21.6 µM.
In data set [2], “1-[N-{5-Acetamido-3,5-dideoxy-2-O-methyl-4,7,8,9-tetra-O-(sodium oxysulfonyl)-D-glycero-β-D-galacto-2-nonulopyranosonyl}amino]-2,2-bis(docosyloxymethyl) propane [Example 59]” registered an IC50 of 1.4 µM. Also, the CC50 in data set [3] is > 200 µM.
As for `CCCCCCCCCCCCCCCCCCCCCCOCC(COC1(C(=O)O)CC(OS(=O)(=O)O)C(OS(=O)(=O)O)C(C(OS(=O)(=O)O)C(COS(=O)(=O)O)OS(=O)(=O)O)O1)OCCCCCCCCCCCCCCCCCCCCCC` [Example 41, 3-O-[Sodium{3-deoxy-4,5,7,8,9-penta-O-(sodiumoxysulfonyl)-D-glycero-α-D-galacto-2-nonulopyranosyl}onate]-1,2-di-O-docosyl-Sn-glycerol], the IC50 in data set [2] was 4 µM. Also, in data set [3], the CC50 was > 200 µM.
For the compound `CCCCCCCCCCCCCCCCCCCCCCOCC(COC1(C(=O)[O-])CC(OS(=O)(=O)[O-])C(NC(C)=O)C(C(OS(=O)(=O)[O-])C(COS(=O)(=O)[O-])OS(=O)(=O)[O-])O1)OCCCCCCCCCCCCCCCCCCCCCC.[Na+].[Na+].[Na+].[Na+].[Na+]` [Example 13, 3-O-[Sodium{5-acetamido-3,5-dideoxy-4,7,8,9-tetra-O-(sodiumoxysulfonyl)-D-glycero-β-D-galacto-2-nonulopyranosyl}onate]-1,2-di-O-docosyl-Sn-glycerol], the “LD50” value in data set [5] was determined as 2000 mg/kg. For the same compound, the IC50 in data set [2] came out at 1.6 µM. Also, the “Minimum concentration exhibiting anticoagulant action” value in data set [1] is 1200 µM. Further, the CC50 in data set [3] was > 200 µM.
For `CCCCCCCCCCCCCCCCCCOC[C@H](CO[C@@]1(C(=O)O)C[C@H](OS(=O)(=O)O)[C@@H](NC(C)=O)[C@H]([C@H](OS(=O)(=O)O)[C@@H](COS(=O)(=O)O)OS(=O)(=O)O)O1)OS(=O)(=O)O` [Example 11, 3-O-[Sodium{5-acetamido-3,5-dideoxy4,7,8,9-tetra-O-(sodiumoxysulfonyl)-D-glycero-β-D-galacto-2-nonulopyranosyl}onate]-2-O-(sodiumoxysulfonyl)-1-O-octadecyl-Sn-glycerol], in data set [2], half-maximal inhibition (IC50) was put at 13 µM. This compound also showed a CC50 in data set [3] of 200 µM.
On the same counts, the results for `CCCCCCCCCCCCCCCCCCOCC(COC1(C(=O)O)CC(OS(=O)(=O)O)C(NC(C)=O)C(C(OS(=O)(=O)O)C(COS(=O)(=O)O)OS(=O)(=O)O)O1)OS(=O)(=O)O` [Example 10, 3-O-[Sodium{5-acetamido-3,5-dideoxy-4,7,8,9-tetra-O-(sodiumoxysulfonyl)-D-glycero-α-D-galacto-2-nonulopyranosyl}onate]-2-O-(sodiumoxysulfonyl)-1-O-octadecyl-Sn-glycerol] are 30 µM and > 200 µM.
The corresponding values for `CCCCCCCCCCCCCCCCCCCCCCCCOCC(COC1(C(=O)O)CC(OS(=O)(=O)O)C(NC(C)=O)C(C(OS(=O)(=O)O)C(COS(=O)(=O)O)OS(=O)(=O)O)O1)OCCCCCCCCCCCCCCCCCCCCCCCC` [Example 20, 3-O-[Sodium{5-acetamido-3,5-dideoxy-4,7,8,9-tetra-O-(sodiumoxysulfonyl)-D-glycero-α-D-galacto-2-nonulopyranosyl}onate]-1,2-di-O-tetracosyl-Sn-glycerol] are 1.2 µM and > 20 µM.
`CCCCCCCCCCOCC(COC1(C(=O)O)CC(OS(=O)(=O)O)C(NC(C)=O)C(C(OS(=O)(=O)O)C(COS(=O)(=O)O)OS(=O)(=O)O)O1)OCCCCCCCCCC` [Example 6, 3-O-[Sodium{5-acetamido-3,5-dideoxy4,7,8,9-tetra-O-(sodiumoxysulfonyl)-D-glycero-β-D-galacto-2-nonulopyranosyl}onate]-1,2-di-O-decyl-Sn-glycerol]: the IC50 in data set [2] was determined as 50 µM. Also, the CC50 in data set [3] (H9 cells, MTT method, 6th day, read-out: CC 50) is > 200 µM.
As for `CCCCCCCCCCCCCCOCC(COC1(C(=O)O)CC(OS(=O)(=O)O)C(NC(C)=O)C(C(OS(=O)(=O)O)C(COS(=O)(=O)O)OS(=O)(=O)O)O1)OCCCCCCCCCCCCCC` [Example 8, 3-O-[Sodium{5-acetamido-3,5-dideoxy-4,7,8,9-tetra-O-(sodiumoxysulfonyl)-D-glycerol-β-D-galacto-2-nonulopyranosyl}ornate]-1,2-di-O-tetradecyl-Sn-glycerol], in data set [2], inhibition was half-maximal at 15 µM (IC50). Further, the CC50 in data set [3] was > 200 µM.
On the same counts, the results for `CCCCCCCCCCCCCCCCCCO[C@]1(C(=O)O)C[C@H](OS(=O)(=O)O)[C@@H](NC(C)=O)[C@H]([C@H](OS(=O)(=O)O)[C@@H](COS(=O)(=O)O)OS(=O)(=O)O)O1` [Example 26, Sodium[octadecyl 5-acetamido-3,5-dideoxy-4,7,8,9-tetra-O-(sodiumoxysulfonyl)-D-glycero-α-D-galacto-2-nonulopyranosid)onate] are 100 µM and > 200 µM.
On the same counts, the results for `CCCCCCCC/C=C\CCCCCCCCOC1(C(=O)O)CC(OS(=O)(=O)O)C(NC(C)=O)C(C(OS(=O)(=O)O)C(COS(=O)(=O)O)OS(=O)(=O)O)O1` [Example 25, Sodium[oleyl 5-acetamido-3,5-dideoxy-4,7,8,9-tetra-O-(sodiumoxysulfonyl)-D-glycero-α-D-galacto-2-nonulopyranosid]onate] are 100 µM and > 200 µM.
The corresponding values for “3-O-[Sodium{5-acetamido-3,5-dideoxy-4,7,8,9-tetra-O-(sodium oxysulfonyl)-D-glycero-α-D-galacto-2-nonulopyranosyl}onate]-1,2-di-O-tetradecyl-Sn-glycerol [Example 7]” are 16 µM and > 200 µM.
With `CCCCCCCCCCCCCCCCCCCCCCOC[C@H](CO[C@]1(C(=O)[O-])C[C@H](OS(=O)(=O)[O-])[C@@H](NC(C)=O)[C@H]([C@H](OS(=O)(=O)[O-])[C@@H](COS(=O)(=O)[O-])OS(=O)(=O)[O-])O1)OCCCCCCCCCCCCCCCCCCCCCC.[Na+].[Na+].[Na+].[Na+].[Na+]` [Example 12, 3-O-[Sodium{5-acetamido-3,5-dideoxy-4,7,8,9-tetra-O-(sodiumoxysulfonyl)-D-glycero-α-D-galacto-2-nonulopyranosyl}onate]-1,2-di-O-docosyl-Sn-glycerol], the “LD50” value in data set [5] is on record as 2000 mg/kg. The same compound returned an IC50 in data set [2] of 0.8 µM. Further, the “Minimum concentration exhibiting anticoagulant action” value in data set [1] came out at 900 µM. The CC50 in data set [3] is > 200 µM.

For orientation: IC50 means the concentration needed to halve the response being measured. A lower IC50 goes with greater potency in that assay. One may read the LD50 as the dose at which mortality reaches 50%. A low value points to a more toxic substance.
